# Measurements taken from a melting point compilation (Tetko et al.; mined from patent text by program, amines drawn as free bases though some values may be those of a salt).
row,SMILES,melting point
1,COCC1CCCN1S(=O)(=O)c1ccc2c(c1)C(=O)C1=NCC3(CCCC3)CN12 (stereo not drawn),171 to 172 °C
2,CC(=O)OC(c1nccs1)(c1nccs1)C(F)(F)F,82 to 84 °C
3,"O=C(CN1CCNC1=O)N1CCC(C2c3ncc(Br)cc3CCc3cc(Cl)cc(Br)c32)CC1 (single isomer, unassigned; (+))",167 to 168 °C
4,CC(=O)OCCN1CN(C)C(=S)N(c2ccc(C)cc2C)C1,80 to 83 °C
5,COc1ccc(CSc2nnc(-c3ccnc(NC(=O)OC(C)(C)C)c3)o2)cc1F,244 to 245 °C
6,CC1Oc2cc(F)ccc2NC1=O (stereo not drawn),166 to 168 °C
7,COc1cccc2cc(C(=O)OCC(C)C)[nH]c12,100 to 101 °C
8,CCOC(=O)CCCC(=O)CNC(=O)c1csc(NC(=O)NCc2ccccc2)n1,135 to 136 °C
9,CCCCNc1c(C)cccc1C,124 to 131 °C
10,CCCCCS(=O)(=O)NC(=O)/C(C)=C/c1ccc(OCCOC)cc1Oc1ncc(C(F)(F)F)cc1Cl,108 to 111 °C
11,CS(=O)(=O)c1ccc(C(=O)c2c(O)cc(Cl)cc2Cl)c(Cl)c1,123 to 126 °C
12,CC(C)[C@@H]1C[C@H](O)[C@H](CC2CCCCC2)NC1=O,97 to 99 °C
13,CCCCSC1(SCCCC)CCC2C3CCC4=CC(=O)C=CC4(C)C3(F)C(O)CC21C (stereo not drawn),160 to 162 °C
14,CC(C)N(C(=O)CBr)C(C)C,64 to 65.5 °C
15,COc1ccnc(CCc2nc3cc(-c4ccco4)cnc3[nH]2)c1,147 to 148 °C
16,Cc1ncc2cc(-c3cc(C(F)(F)F)cc(C(F)(F)F)c3)ccc2n1,208 to 210 °C
17,Brc1cnc2nc(N3CCN(CCCCOc4ccccc4)CC3)nn2c1,122 to 123 °C
18,CC(CS)C(=O)N1CC(Oc2ccc(CC3Nc4cc(Cl)c(S(N)(=O)=O)cc4S(=O)(=O)N3C)cc2)CC1C(=O)O (stereo not drawn),192 to 197 °C
19,CCCCCN1C(=O)C2(COc3cc4c(cc32)CCO4)c2ccccc21 (stereo not drawn),128 to 129 °C
20,COc1c(OCCCCCC(=O)N(CCO)C2CCCCC2)ccc2c1CN1CC(=O)NC1=N2,208 to 209 °C
21,CC(=O)Nc1cc(Cl)c([N+](=O)[O-])cc1CCOC(C)=O,153 °C
22,CCC(F)c1cc(N2CCNCC2)cc(-c2ccccc2C#N)c1Cl (stereo not drawn),159 °C
23,CSc1cc(CCC(=O)OC(C)(C)C)cc(-c2nc(=O)c3ccccc3s2)n1,126 °C
24,CC(=O)SCSc1nnn[nH]1,90 °C
25,COC(=O)c1cc(OC)c(OS(=O)(=O)C(F)(F)F)cc1[N+](=O)[O-],69 to 70 °C
26,CC1=Nc2ccccc2CC(c2ccsc2C)N1C (stereo not drawn),91 to 92 °C

row,SMILES,melting point
1,CCOC(=O)C1=C(N)NC(C)=CC1c1cccc(Cl)c1 (stereo not drawn),140 °C
2,Cc1cc(-c2c(F)cc3c(=O)c(C(=O)O)cn4c3c2OC[C@@H]4C)cc(C)n1,305 to 308 °C
3,CCCCCCc1cccc(N2CC(=O)NC(=O)N2)c1,95 to 99 °C
4,CCc1cn(C2CC(O)C(CNCC(C)Oc3ccc(Cl)cc3Cl)O2)c(=O)[nH]c1=O (mixture of isomers),51 to 61 °C
5,CC(C)Cc1[nH]c(=O)[nH]c1-c1cc(C(C)(C)C)c(O)c(C(C)(C)C)c1,286 to 289 °C
6,Fc1ccc(-n2c(CCl)csc2=S)c(F)c1F,127 to 130 °C
7,CCOC(=O)c1cn2c(ccc3ccc(OC)cc32)n1,146 to 148 °C
8,N#Cc1c[nH]c(Cl)c1-c1cccc(F)c1,158 to 161 °C
9,CC(C)(C)OC(=O)NC[C@H]1C[C@H]1CON1C(=O)c2ccccc2C1=O (relative stereo),96 to 97 °C
10,C=CCc1cc(C(=O)c2ccnn2C)c(Cl)c(Cl)c1OCC(=O)O,111 to 113 °C
11,OCCSSc1nc2ccccc2s1,65 to 68 °C
12,O=[N+]([O-])c1ccc(Oc2c(Cl)cc(C(F)(F)F)cc2Cl)cc1CO,143 °C
13,OC/C=C/c1ccc(O)cc1,116 to 118 °C
14,Cn1cccc1C(=O)CS(C)=O (stereo not drawn),74 to 76 °C
15,COc1ccc(COc2cc(NC(C)=O)c(Cl)cc2C(=O)CCCCCl)cc1OC,147 °C
16,CCCn1c(=O)[nH]c2cc(Cl)cc(Cl)c2c1=O,223 to 234 °C
17,CCCCCCCCCCCCC(O)CNCCCCCCNCC(O)CCCCCCCCCCCC (stereo not drawn),118 to 121 °C
18,N#CCN1c2ccc([N+](=O)[O-])cc2CS1(=O)=O,200 to 202 °C
19,CCOC(=O)CNCP(=O)(O)O,> 220 °C
20,"CCCC(=O)NCCC1CCc2cc(OC)ccc21 (single isomer, unassigned; (-))",79 to 80 °C
21,COC(=O)CCC(=O)c1ccc2c(c1)CNC(=O)N2C,165 to 175 °C
22,COc1cc(C=O)ccc1OCc1nc(N2CCOCC2)sc1C,127 to 128 °C
23,OCc1cc(N2CCCCC2)c(Br)cn1,118 to 119 °C
24,Cc1nnsc1C(=O)Nc1ccc(-n2nc(C3CC3)cc2C2CC2)cc1,117 to 120 °C
25,Cn1c(CCNC(=O)C(F)(F)F)cc2cccc(F)c21,108 to 110 °C

# Other lines, results leading:
row,melting point,SMILES
1,280 °C,COc1ccc(-c2[nH]nc3c2C(=O)c2c(NC(=O)NNC(=O)c4ccccc4O)cccc2-3)cc1
2,205 to 207 °C,O=C1Nc2cccnc2N(C(=O)CCN2CCN(Cc3ccccc3)CC2)c2ccccc21
3,244 to 246 °C,Cc1ccc(S(=O)(=O)N2c3ccccc3C(c3ccccc3)(c3ccccc3)C2NC(=O)Nc2ccc(F)cc2F)cc1 (stereo not drawn)
4,158 °C,CSc1nc(-c2ccc(F)cc2)nc(-c2ccccn2)n1
5,174 °C,COC(=C1NC(=O)C(=NO)C1=O)c1ccccc1
6,178 to 182 °C,COc1cc(OCCCO)c(C=CC(=O)c2ccc(S(=O)(=O)Nc3cc(C)on3)cc2)cc1-c1cccs1
7,94.5 to 97.5 °C,COc1ccc2c(c1)C(=O)c1ccccc1C2
8,202 to 204 °C,CN(C1CCN(Cc2ccccn2)CC1)S(=O)(=O)c1ccc(Nc2nccc(Nc3ccc(F)cc3)n2)cc1
9,190 to 195 °C,Nc1cccc(-c2ccc(CCN3CCC(N)CC3)cc2)n1
10,85 to 87 °C,COc1cc(C=CC(=O)COc2ccccc2)ccc1O
11,111 to 112 °C,CC1(C)CCC(C)(C)c2cc(C(=O)COc3ccc(C=O)c(O)c3)ccc21
12,119 to 120 °C,Cc1oc(-c2ccccc2)nc1COc1ccc(COc2ncccc2C#N)cc1
13,167 to 168 °C,CCN(CC)C(=O)/C=C(\C)c1ccc(OCc2c(F)cccc2F)c(CC(=O)O)c1
14,79 to 80 °C,Fc1ccc(C#CC2=CCN(Cc3coc4ccccc34)CC2)cc1
15,170 °C,c1ccc(CSc2nc3cc4ccccc4cc3[nH]2)nc1
16,108 to 109 °C,CN(C)Cc1cc(Cl)ccc1OCCN(C)Cc1ccc(C(N)=O)cc1
17,179 to 181 °C,Oc1ccc(O)c(C2(c3ccccc3)CC3CCC2C3)c1 (stereo not drawn)
18,257 to 259 °C,N=C1N(c2ccccc2)CCN1c1ccccc1[N+](=O)[O-]
19,123 to 124 °C,COc1ccc(Cc2nc(-c3ccc(F)cc3)c(-c3ccc(S(C)(=O)=O)cc3)o2)cc1
20,78 to 80 °C,COc1ccc2cc(C=CC(C)OC(C)=O)ccc2c1 (stereo not drawn)
21,39 to 40 °C,COc1ccc(-c2ccc(C)c(OCC(OC)OC)c2)cc1
22,131 to 132 °C,COc1cc(CCCC2SC(=O)NC2=O)ccc1OCc1coc(-c2ccccc2)n1 (stereo not drawn)
23,87 to 91 °C,Cc1ccc(C[C@@H]2CN(C(=O)/C=C/c3ccccc3)CCN2C(=O)c2cc(C(F)(F)F)cc(C(F)(F)F)c2)cc1C
24,192 to 193 °C,Cc1ccc(CCOc2ccc(CC3SC(=O)NC3=O)cc2)nc1 (stereo not drawn)

row,melting point,SMILES
1,126 to 129 °C,CN(C)CN(C(=O)c1ccc(Cl)cc1Cl)c1ccc(C(=O)N2Cc3cccn3Cc3ccccc32)cc1
2,130 to 132 °C,O=C1CCC(c2ccc(NC(=O)CCNCCc3ccccc3)cc2)=NN1
3,234 to 235 °C,COc1cccc(NC(=O)NC2CN(C3CCCCC3)c3ccccc3N(CC(=O)C(C)(C)C)C2=O)c1 (stereo not drawn)
4,240 to 242 °C,CC(C)n1nc(-c2c(Nc3ccccc3)nc(N)nc2-c2ccccc2)ccc1=O
5,92 to 94 °C,Cc1c(NC(=O)c2ccc(OC[C@@H]3CCCO3)cc2)ccc2cc(CNCC3CCOCC3)cnc12
6,275 to 281 °C,COc1ccc(Nc2ccnc3nc(CO)ccc23)cc1
7,197 to 198 °C,O=C(NCC1CCCC1)NC1CCN(CC23CC(c4ccccc42)c2ccccc23)CC1
8,146 to 147 °C,CN(C)C1CCc2oc3ccc(NC(=O)c4ccncc4)cc3c2C1 (stereo not drawn)
9,175 to 176 °C,"CCC(=O)OC(C)c1ccc(-c2ccc(C(=O)O)cc2)cc1 (single isomer, unassigned; (+))"
10,141 to 143 °C,CC(C)(C)OC(=O)c1ccc(C(=O)NS(=O)(=O)c2ccccc2)cc1
11,260 to 263 °C,CC(C)C(NC(=O)CCc1cccnc1)C(=O)NC(Cc1ccccc1)C(O)C(O)C(Cc1ccccc1)NC(=O)C(NC(=O)CCc1cccnc1)C(C)C (stereo not drawn)
12,102 to 103 °C,CC(C)c1cc(-c2ccc(F)cc2)n(-c2ncccn2)n1
13,83 to 92 °C,CCC(C(=O)O)(c1ccc(OCc2ccc3ccccc3n2)cc1)c1ccc(OCc2ccc3ccccc3n2)cc1
14,269 °C,CN(c1cccc2cc(-c3nccs3)[nH]c12)S(=O)(=O)c1ccsc1C(N)=O
15,198 to 200 °C,Nc1ccc(C(=O)N2CCC(c3[nH]nc4c3C(=O)c3c(NC(=O)NN5CCOCC5)cccc3-4)CC2)cc1
16,103 to 104 °C,COC(=O)c1ccc([C@H]2CCN(Cc3ccccc3)C[C@@H]2O)cc1 (racemic)
17,165 to 167 °C,COc1ccc(C(=O)Nc2ccc(C3(CNC(=O)C(C)(C)C)CCCC3)cc2)cc1OC
18,> 300 °C,O=C(O)c1cc(O)cc2nc3c(O)cccc3nc12
19,253 to 255 °C,O=C(O)/C=C/C=C(c1ccc(-c2ccccc2)cc1)c1ccc(-c2ccccc2)cc1
20,175 °C,O=C(NCc1ccc(F)cc1)c1ccc2nc(N[C@@H]3CCc4ccccc43)ccc2c1
21,259 to 261 °C,COc1ccc(C=CC(=O)N2CCN(C(=O)C=Cc3ccc(OC)c(C(F)F)c3)CC2)cc1C(F)F
22,91 to 92 °C,O=C(Oc1ccc(F)cc1Cl)Oc1ccc(F)cc1Cl
23,185 to 186 °C,CC(C)(C)c1ccccc1C(O)(c1ccccc1)c1ncc[nH]1 (stereo not drawn)
